Where two headings read alike, the source gives them in different places.
How the values were obtained:
[1] = molecular target: Mcl-1 protein (UniProtKB primary accession number: Q07820) (Homo sapiens, UniProt Q07820); assay: Inhibition of Mcl-1 by fluorescence polarisation, Method 1; type: binding
Method in brief: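 FP readout of relative binding potency. Mcl-1 5 nM final, fluorescein-labelled ligand 1 nM final; buffer 10 mM HEPES, 150 mM NaCl, 0.05% Tween 20, pH 7.4; 11-pt dilution series, 5% DMSO final.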

[2] = system: H929 multiple myeloma tumour line; assay: In vitro cytotoxicity, Microculture Tetrazolium Assay; type: cell-based; conditions: read-out: IC50 (μM) MTT H929
Experimental: The cytotoxicity studies were carried out on the H929 multiple myeloma tumour line.
The cells are distributed onto microplates and exposed to the test compounds for 48 hours.

[3] = fluorescence polarisation test, Method 2 values are underlined in the patent (underlining not visible here), read-out: IC50 (M) Mcl-1 FP
[4] = Homo sapiens, NCI-H929, 48 h, H929 cells, 48 hours exposure, MTT

Sequence of Mcl-1 protein (Q07820 whole entry): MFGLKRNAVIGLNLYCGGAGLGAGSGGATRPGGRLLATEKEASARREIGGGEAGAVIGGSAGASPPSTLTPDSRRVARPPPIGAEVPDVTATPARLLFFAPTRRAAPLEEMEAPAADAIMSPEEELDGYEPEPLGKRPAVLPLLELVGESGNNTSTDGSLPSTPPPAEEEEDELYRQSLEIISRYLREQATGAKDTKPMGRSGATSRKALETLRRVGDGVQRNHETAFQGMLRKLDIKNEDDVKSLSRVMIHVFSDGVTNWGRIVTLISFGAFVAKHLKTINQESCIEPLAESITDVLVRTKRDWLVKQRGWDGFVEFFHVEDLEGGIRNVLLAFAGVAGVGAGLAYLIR

| SMILES | IC50 [1, 3] | IC50 [2, 4] | other results |
| --- | --- | --- | --- |
| Cc1c(-c2c(-c3ccc(Cl)o3)sc3ncnc(OC(Cc4ccccc4OCc4cocn4)C(=O)O)c23)ccc(OCCN2CCN(C)CC2)c1Cl [Example 376, (2R)-2-{[6-(5-chlorofuran-2-yl)-(5Sa)-5-{3-chloro-2-methyl-4-[2-(4-methylpiperazin-1-yl)ethoxy]phenyl}thieno[2,3-d]pyrimidin-4-yl]oxy}-3-[2-(1,3-oxazol-4-ylmethoxy)phenyl]propanoic acid] | 2e-09 M | 0.076 µM | – |
| Cc1c(-c2c(-c3ccc(Cl)o3)sc3ncnc(OC(Cc4ccccc4OCC4CCCO4)C(=O)O)c23)ccc(OCCN2CCN(C)CC2)c1Cl [Example 377, (2R)-2-{[6-(5-chlorofuran-2-yl)-(5Sa)-5-{3-chloro-2-methyl-4-[2-(4-methylpiperazin-1-yl)ethoxy]phenyl}thieno[2,3-d]pyrimidin-4-yl]oxy}-3-{2-[(2S)-tetrahydrofuran-2-ylmethoxy]phenyl}propanoic acid] | 3.8e-09 M | – | IC50 ([2]; H929 cells, 48 hours exposure, MTT): 0.047 µM |
| COc1cc(-c2sc3ncnc(OC(Cc4ccccc4OC)C(=O)O)c3c2-c2ccc(OCCN3CCN(C)CC3)c(Cl)c2C)ccc1F [Example 378, (2R)-2-{[(5Sa)-5-{3-chloro-2-methyl-4-[2-(4-methylpiperazin-1-yl)ethoxy]phenyl}-6-(4-fluoro-3-methoxyphenyl)thieno[2,3-d]pyrimidin-4-yl]oxy}-3-(2-methoxyphenyl)propanoic acid] | 3.2e-09 M | 0.202 µM | – |
| COc1cc(-c2sc3ncnc(OC(Cc4ccccc4OCC4CCCO4)C(=O)O)c3c2-c2ccc(OCCN3CCN(C)CC3)c(Cl)c2C)ccc1F [Example 379, (2R)-2-{[(5Sa)-5-{3-chloro-2-methyl-4-[2-(4-methylpiperazin-1-yl)ethoxy]phenyl}-6-(4-fluoro-3-methoxyphenyl)thieno[2,3-d]pyrimidin-4-yl]oxy}-3-{2-[(2R)-tetrahydrofuran-2-ylmethoxy]phenyl}propanoic acid] | 1.3e-08 M | 0.174 µM | – |
| COc1cc(-c2sc3ncnc(OC(Cc4ccccc4OCC(F)(F)F)C(=O)O)c3c2-c2ccc(OCCN3CCN(C)CC3)c(Cl)c2C)ccc1F [Example 380, (2R)-2-{[(5Sa)-5-{3-chloro-2-methyl-4-[2-(4-methylpiperazin-1-yl)ethoxy]phenyl}-6-(4-fluoro-3-methoxyphenyl)thieno[2,3-d]pyrimidin-4-yl]oxy}-3-[2-(2,2,2-trifluoroethoxy)phenyl]propanoic acid] | 1.1e-08 M | 0.162 µM | – |
| COc1cc(-c2sc3ncnc(OC(Cc4ccccc4OCc4ccccn4)C(=O)O)c3c2-c2ccc(OCCN3CCN(C)CC3)c(Cl)c2C)ccc1F [Example 381, (2R)-2-{[(5Sa)-5-{3-chloro-2-methyl-4-[2-(4-methylpiperazin-1-yl)ethoxy]phenyl}-6-(4-fluoro-3-methoxyphenyl)thieno[2,3-d]pyrimidin-4-yl]oxy}-3-[2-(pyridin-2-ylmethoxy)phenyl]propanoic acid] | 1.3e-08 M | 0.119 µM | – |
| COc1cc(-c2sc3ncnc(OC(Cc4ccccc4OCc4ccnc(C(F)(F)F)n4)C(=O)O)c3c2-c2ccc(OCCN3CCN(C)CC3)c(Cl)c2C)ccc1F [Example 382, (2R)-2-{[(5Sa)-5-{3-chloro-2-methyl-4-[2-(4-methylpiperazin-1-yl)ethoxy]phenyl}-6-(4-fluoro-3-methoxyphenyl)thieno[2,3-d]pyrimidin-4-yl]oxy}-3-(2-{[2-(trifluoromethyl)pyrimidin-4-yl]methoxy}phenyl)propanoic acid] | 7.1e-09 M | 0.033 µM | – |
| COc1nccc(COc2ccccc2CC(Oc2ncnc3sc(-c4ccc(F)c(OC)c4)c(-c4ccc(OCCN5CCN(C)CC5)c(Cl)c4C)c23)C(=O)O)n1 [Example 383, (2R)-2-{[(5Sa)-5-{3-chloro-2-methyl-4-[2-(4-methylpiperazin-1-yl)ethoxy]phenyl}-6-(4-fluoro-3-methoxyphenyl)thieno[2,3-d]pyrimidin-4-yl]oxy}-3-{2-[(2-methoxypyrimidin-4-yl)methoxy]phenyl}propanoic acid] | 5.6e-09 M | 0.03 µM | – |
| CCn1nccc1COc1ccccc1CC(Oc1ncnc2sc(-c3ccc(F)c(OC)c3)c(-c3ccc(OCCN4CCN(C)CC4)c(Cl)c3C)c12)C(=O)O [Example 384, (2R)-2-{[(5Sa)-5-{3-chloro-2-methyl-4-[2-(4-methylpiperazin-1-yl)ethoxy]phenyl}-6-(4-fluoro-3-methoxyphenyl)thieno[2,3-d]pyrimidin-4-yl]oxy}-3-{2-[(1-ethyl-1H-pyrazol-5-yl)methoxy]phenyl}propanoic acid] | 3.8e-09 M | 0.053 µM | – |
| CCCn1nccc1COc1ccccc1CC(Oc1ncnc2sc(-c3ccc(F)c(OC)c3)c(-c3ccc(OCCN4CCN(C)CC4)c(Cl)c3C)c12)C(=O)O [Example 385, (2R)-2-{[(5Sa)-5-{3-chloro-2-methyl-4-[2-(4-methylpiperazin-1-yl)ethoxy]phenyl}-6-(4-fluoro-3-methoxyphenyl)thieno[2,3-d]pyrimidin-4-yl]oxy}-3-{2-[(1-propyl-1H-pyrazol-5-yl)methoxy]phenyl}propanoic acid] | 3.5e-09 M | 0.048 µM | – |
| COc1cc(-c2sc3ncnc(OC(Cc4ccccc4OCc4cnccn4)C(=O)O)c3c2-c2ccc(OCCN3CCN(C)CC3)c(Cl)c2C)ccc1F [Example 386, (2R)-2-{[(5Sa)-5-{3-chloro-2-methyl-4-[2-(4-methylpiperazin-1-yl)ethoxy]phenyl}-6-(4-fluoro-3-methoxyphenyl)thieno[2,3-d]pyrimidin-4-yl]oxy}-3-[2-(pyrazin-2-ylmethoxy)phenyl]propanoic acid] | 1e-08 M | 0.075 µM | – |
| COCCOc1ccccc1CC(Oc1ncnc2sc(-c3ccc(F)c(OC)c3)c(-c3ccc(OCCN4CCN(C)CC4)c(Cl)c3C)c12)C(=O)O [Example 387, (2R)-2-{[(5Sa)-5-{3-chloro-2-methyl-4-[2-(4-methylpiperazin-1-yl)ethoxy]phenyl}-6-(4-fluoro-3-methoxyphenyl)thieno[2,3-d]pyrimidin-4-yl]oxy}-3-[2-(2-methoxyethoxy)phenyl]propanoic acid] | – | – | IC50 ([1]; IC50 (M) Mcl-1 FP, fluorescence polarisation test, Method 2 values are underlined in the patent (underlining not visible here)): 4e-09 M; IC50 ([2]; Homo sapiens, NCI-H929, 48 h): 0.202 µM |
| CCc1sc2ncnc(OC(Cc3ccccc3)C(=O)O)c2c1-c1ccc(OCC(=O)N(C)C)c(Cl)c1C [Example 390, (2R)-2-[((5Sa)-5-{3-chloro-4-[2-(dimethylamino)-2-oxoethoxy]-2-methylphenyl}-6-ethylthieno[2,3-d]pyrimidin-4-yl)oxy]-3-phenylpropanoic acid] | 4e-08 M | 20 µM | – |
| CCc1sc2ncnc(OC(Cc3ccccc3)C(=O)O)c2c1-c1ccc(OCC(=O)N2CCCC2)c(Cl)c1C [Example 391, (2R)-2-[((5Sa)-5-{3-chloro-2-methyl-4-[2-oxo-2-(pyrrolidin-1-yl)ethoxy]phenyl}-6-ethylthieno[2,3-d]pyrimidin-4-yl)oxy]-3-phenylpropanoic acid] | 3.7e-08 M | 22.1 µM | – |
| CCc1sc2ncnc(OC(Cc3ccccc3)C(=O)O)c2c1-c1ccc(OCC(=O)N2CCOCC2)c(Cl)c1C [Example 393, (2R)-2-[((5Sa)-5-{3-chloro-2-methyl-4-[2-(morpholin-4-yl)-2-oxoethoxy]phenyl}-6-ethylthieno[2,3-d]pyrimidin-4-yl)oxy]-3-phenylpropanoic acid] | – | 16.6 µM | IC50 ([1]; fluorescence polarisation, Method 1, or Method 2, read-out: IC50 (M) Mcl-1 FP): 4.1e-08 M |
